Test results as given in patent publication US9556226B2, “Peptides with antifungal activity and methods of using the peptides” (THE BOARD OF TRUSTEES OF THE UNIVERSITY OF ARKANSAS, priority 2013, dated 2017).
In brackets after ≈: the same amount, converted by molar mass. Like-named read-outs stand apart in the source and are kept apart here. Bridge positions count the residues as written; N and C are the ends. Square brackets hold non-standard residues; d marks the D form. Peptide text beside a SMILES is read from it. I, II: the chains in the order shown.

Assays:
[1] = protein binding evaluation using bovine calf serum (disulfide bond stability); assay type: in vitro ADME
From the text: To alleviate that difficulty, two additional peptides were synthesized, KM23 and KM29. The KM23 peptide was identical in sequence to KM12 except the cysteine residues were removed resulting in a peptide with the sequence Y -K-R-K-F-F-K-R-K-Y (SEQ ID NO: 3). Since there were two phenylalanines at the center of this symmetrical peptide another peptide, designated KM29 was synthesized to yield the symmetric peptide Y-K-R-K-F-K-R-K-Y (SEQ ID NO: 4) with one phenylalanine at the center.

[2] = tested on: CD1 mice; assay: Acute toxicity testing in CD1 mice (up-down protocol); assay type: in vivo; conditions: for signs observed on tested animals: IV
Method: To evaluate acute toxicity in animals, CD1 outbred mice were injected via tail vein with either KM12 or KM14 using a standard up-down concentration protocol and observed for any symptoms consistent with the toxicity of the peptides (Table 4). Mice were initially injected with KM12 or KM14 at a concentration of 8 mg/kg. […] Thus the KM12 peptide was deemed safe for animals at concentrations up to 10 mg/kg and the use of 5% glucose versus phosphate-buffered saline was deemed safer for administration to the animals. We will continue to evaluate acute toxicity with other KM peptides (i.e. KM23 and KM29) that show excellent promise as antifungal compounds. In addition, we plan to evaluate these peptides for treatment of superficial mucosal infections with Candida species.
(§1) Animal Studies: For the animal studies, CD-1 mice of 8-25 grams were injected with the antifungal peptides dissolved in either phosphate-buffered saline or 5% glucose. Peptide concentrations used for the injection of mice were chosen using a standard up-down protocol starting at 8 mg/kg. Peptides were injected into mice intravenously, intramuscularly, or intraperitoneally as indicated. The mice were closely monitored lbr signs of distress after injection. After two hours of continuous monitoring, the mice were evaluated daily for two weeks and necropsies performed after two weeks. For evaluating the immunogenicity of the peptides, mice were injected with peptides at a concentration of 10 mg/kg in 5% glucose. The routes of injection were intravenous, intramuscular, or intraperitoneal. Five mice were injected with the peptide per route of injection. The mice were injected with the same dose of peptide once per month for four months. The mice were monitored for signs of distress after each injection. At the end of the fifth month, the mice were euthanized by an overdose of anesthesia and the serum was collected from each mouse individually as assay for activity against the peptide using dot blots.

[3] = tested on: CD1 mice; assay: Immunogenicity in mice, serum dot blot for antibodies against the peptide; assay type: in vivo
Method: Small peptides have the potential to induce an immune response when used for therapeutic purposes. To examine this possibility, mice were injected once per month for four months with 10 mg/kg of the KM12 peptide either by intravenous, intramuscular, or intraperitoneal route. After the fifth month, the mice were euthanized and the serum collected and tested by dot blot analysis for antibodies directed against the KM12 peptide. For each route of injection, five CD1 mice were used. […] It is plausible that the smaller size of those peptides may not elicit an immune response, yet be effect as antifungals. Such studies are currently underway on KM23 and KM29.
as §1

[4] = tested on: Candida albicans SC5314; assay type: cell-based; conditions: for percent of C. albicans killed at 5 μM concentration: SC5314, 5
Method: Killing assays. The fungicidal activity of the peptides toward Candida albicans was examined by microdilution plate assay as described previously (13). Briefly, from a fresh overnight cultured plate, a single colony was inoculated and diluted in 1 ml of 10 mM sodium phosphate buffer at pH 7.4. Once cell counts had been confirmed by using a hemocytometer, the cells diluted within the same buffer at 1.8×10^5 cells/mil. Cell suspensions of 20 μl were mixed with 20 μl of peptide, which were dissolved in 10 mM sodium phosphate buffer at pH 7.4, and then incubated for 2 hours at 37° C. with shaking at speeds of 550 rpm. The reactions were stopped by the addition of 360 μl yeast nitrogen base (YNB) and then 40 μl of cell suspension was spread onto plates and incubated for 24 hours at 37° C. Sabouraud dextrose agar plates were used for C. albicans killing assay. The number of colony-forming units (CFUs) was counted and each assay was repeated in triplicate. Loss of viability was calculated as [1-(colonies from suspension with peptide/colonies from suspension with no peptide)]×100. For the respiratory activity experiments, Candida albicans was grown in the presence of sodium azide or antimycin A (Sigma Aldrich) before the killing assay was performed.

[5] = tested on: Candida glabrata ATCC90030; assay: Minimum inhibitory concentration (MIC) assay with resazurin; assay type: cell-based; conditions: 0.125X RPMI medium, range of three independent experiments
From the text: (§2) Minimum Inhibitory Concentration Assays: MIC assays were used to evaluate the minimum concentration of each antifungal peptide that would lead to 100% inhibition of growth. In the MIC assay, the colorimetric indicator, resazurin, is used to evaluate cell growth. Resazurin turns pink after reduction by living cells, indicating active cell growth. The unchanged blue color indicated no active cell growth. Colorimetric MIC end-points are interpreted as the lowest drug concentration that remained blue. The lowest dilution that changed from blue to slightly purple is indicative of significant cell growth inhibition; whereas a pink color indicates no growth inhibition. Each individual Candida species was assayed a minimum of three times and the results represent the range of MIC values obtained. The MIC assay was performed as described by the National Committee for Clinical Laboratory Standards M27-A, except we include resazurin as an indicator dye rather than visual inspection and the […] tissue culture medium was used at 0.125× concentration for our assays.

[6] = tested on: Candida kefyr ATCC4135; assay: as above; assay type: cell-based; conditions: 0.125X RPMI medium, range of three independent experiments
From the text: as §2

[7] = tested on: Candida tropicalis ATCC750; assay: as above; assay type: cell-based; conditions: 0.125X RPMI medium, range of three independent experiments
From the text: as §2

[8] = tested on: Candida krusel ATCC6258; assay: as above; assay type: cell-based; conditions: 0.125X RPMI medium, range of three independent experiments
From the text: as §2

[9] = tested on: Candida lucitaniae ATCC200951; assay: as above; assay type: cell-based; conditions: 0.125X RPMI medium, range of three independent experiments
From the text: as §2

[10] = tested on: Candida albicans SC5314; assay: as above; assay type: cell-based; conditions: 0.125X RPMI medium, range of three independent experiments
From the text: as §2

CC(=O)N[C@@H](CSSC[C@H](NC(C)=O)C(=O)N[C@@H](Cc1ccccc1)C(=O)N[C@@H](CCCCN)C(=O)N[C@@H](CCCNC(=N)N)C(=O)N[C@@H](CCCCN)C(=O)N[C@@H](Cc1ccc(O)cc1)C(N)=O)C(=O)N[C@@H](Cc1ccccc1)C(=O)N[C@@H](CCCCN)C(=O)N[C@@H](CCCNC(=N)N)C(=O)N[C@@H](CCCCN)C(=O)N[C@@H](Cc1ccc(O)cc1)C(N)=O [KM12, Y-K-R-K-F-C-----C-F-K-R-K-Y]
stability of the disulfide bond in bovine calf serum [1]: readily reduced
signs observed on tested animals ([2]; 8 mg/kg, in PBS, CD1 mice): no toxicity and None
signs observed on tested animals ([2]; 10 mg/kg, IM, IP, in 5% glucose, CD1 mice (n = 15)): no major toxicity and None
signs observed on tested animals ([2]; 10 mg/kg, in PBS, CD1 mice (n = 5)): None
signs observed on tested animals ([2]; 16 mg/kg, in 5% glucose, CD1 mice (n = 2)): Convulsion, no death
dosage deemed safe / well-tolerated in mice ([2]; intravenous, intramuscular or intraperitoneal route): up to 10 mg/kg
mice displaying a weak immune response (antibodies against the peptide) ([3]; 10 mg/kg once per month for four months, intramuscular injection): 1/5
mice displaying an immune response (antibodies against the peptide) ([3]; 10 mg/kg once per month for four months, intraperitoneal injection): 0/5
mice showing a moderate immune response (antibodies against the peptide) ([3]; 10 mg/kg once per month for four months, intravenous injection): 1/5
immunogenicity (overall, in words) ([3]; CD1 mice, 10 mg/kg monthly, IV, IM or IP): weakly immunogenic

CC(=O)N[C@@H](Cc1ccccc1)C(=O)N[C@@H](CCCCN)C(=O)N[C@@H](CSSC[C@H](NC(=O)[C@H](CCCCN)NC(=O)[C@H](Cc1ccccc1)NC(C)=O)C(=O)N[C@@H](CCCNC(=N)N)C(=O)N[C@@H](CCCCN)C(=O)N[C@@H](Cc1ccc(O)cc1)C(N)=O)C(=O)N[C@@H](CCCNC(=N)N)C(=O)N[C@@H](CCCCN)C(=O)N[C@@H](Cc1ccc(O)cc1)C(N)=O [KM16, F-K-C-R-K-Y] (I: Ac-FKCRKY-NH2 / II: Ac-FKCRKY-NH2; disulfide I:3-II:3)
antifungal activity relative to comparator peptides (in words) ([4]; Candida albicans SC5314): very promising antifungal activity compatible with that of KM12 and KM14
percent of C. albicans killed at 5 μM concentration [4]: > 90%

CC(=O)N[C@@H](CCCCN)C(=O)N[C@@H](Cc1ccccc1)C(=O)N[C@@H](CCCNC(=N)N)C(=O)N[C@@H](Cc1ccc(O)cc1)C(=O)N[C@@H](CCCCN)C(N)=O [KM10, KFRYK] (Ac-KFRYK-NH2)
Percent killing activity at 25 μM concentration ([4]; SC5314, 25): 55%

CC(=O)N[C@@H](Cc1ccc(O)cc1)C(=O)N[C@@H](CCCCN)C(=O)N[C@@H](CCCNC(=N)N)C(=O)N[C@@H](CCCCN)C(=O)N[C@@H](Cc1ccccc1)C(=O)N[C@@H](Cc1ccccc1)C(=O)N[C@@H](CCCCN)C(=O)N[C@@H](CCCNC(=N)N)C(=O)N[C@@H](CCCCN)C(=O)N[C@@H](Cc1ccc(O)cc1)C(N)=O [KM23, Y-K-R-K-F-F-K-R-K-Y] (Ac-YKRKFFKRKY-NH2)
LD50 in killing assays ([4]; Candida albicans SC5314): 62.5 nM
MIC [5]: 75.4 µg/mL (≈ 50.1 µM)
MIC [6]: 1.2 to 4.7 µg/mL
MIC [7]: 2.4 to 4.7 µg/mL
MIC [8]: 4.7 µg/mL (≈ 3.12 µM)
MIC [9]: 2.4 µg/mL (≈ 1.59 µM)
MIC [10]: 4.7 µg/mL (≈ 3.12 µM)

CC(=O)N[C@@H](Cc1ccc(O)cc1)C(=O)N[C@@H](CCCCN)C(=O)N[C@@H](CCCNC(=N)N)C(=O)N[C@@H](CCCCN)C(=O)N[C@@H](Cc1ccccc1)C(=O)N[C@@H](CCCCN)C(=O)N[C@@H](CCCNC(=N)N)C(=O)N[C@@H](CCCCN)C(=O)N[C@@H](Cc1ccc(O)cc1)C(N)=O [KM29, Y-K-R-K-F-K-R-K-Y] (Ac-YKRKFKRKY-NH2)
LD50 in killing assays ([4]; Candida albicans SC5314): 62.5 nM
MIC [5]: 67.5 µg/mL (≈ 49.7 µM)
MIC [6]: 2.1 to 4.3 µg/mL
MIC [7]: 2.1 to 4.2 µg/mL
MIC [8]: 4.2 µg/mL (≈ 3.09 µM)
MIC [9]: 2.1 to 4.2 µg/mL
MIC [10]: 4.2 to 8.4 µg/mL

CC(=O)N[C@H]1CSSC[C@@H](C(N)=O)NC(=O)[C@H](Cc2ccc(O)cc2)NC(=O)[C@H](CCCCN)NC(=O)[C@H](CCCNC(=N)N)NC(=O)[C@H](CCCCN)NC(=O)[C@H](Cc2ccccc2)NC1=O [KM17, C-F-K-R-K-Y-C] (Ac-CFKRKYC-NH2; disulfide 1-7)
antifungal activity relative to comparator peptides (in words) ([4]; Candida albicans SC5314): very promising antifungal activity compatible with that of KM12 and KM14
percent of C. albicans killed at 5 μM concentration [4]: > 90%

CC(=O)N[C@@H](CS)C(=O)N[C@@H](Cc1ccccc1)C(=O)N[C@@H](CCCCN)C(=O)N[C@@H](CCCNC(=N)N)C(=O)N[C@@H](CCCCN)C(=O)N[C@@H](Cc1ccc(O)cc1)C(N)=O [KM11, C-F-K-R-K-Y] (Ac-CFKRKY-NH2)
antifungal activity relative to comparator peptides (in words) ([4]; Candida albicans SC5314): did not alter its antifungal activity
Percent killing activity at 25 μM concentration ([4]; SC5314, 25): 95%

CC(=O)N[C@@H](CSSC[C@H](NC(C)=O)C(=O)N[C@@H](Cc1c[nH]c2ccccc12)C(=O)N[C@@H](CCCCN)C(=O)N[C@@H](CCCNC(=N)N)C(=O)N[C@@H](CCCCN)C(=O)N[C@@H](Cc1c[nH]c2ccccc12)C(N)=O)C(=O)N[C@@H](Cc1c[nH]c2ccccc12)C(=O)N[C@@H](CCCCN)C(=O)N[C@@H](CCCNC(=N)N)C(=O)N[C@@H](CCCCN)C(=O)N[C@@H](Cc1c[nH]c2ccccc12)C(N)=O [KM14, W-K-R-K-W-C-----C-W-K-R-K-W]
signs observed on tested animals ([2]; 8 mg/kg, in PBS, CD1 mice): immediate death

CC(=O)N[C@@H](Cc1ccccc1)C(=O)N[C@@H](CCCCN)C(=O)N[C@@H](CCCNC(=N)N)C(=O)N[C@@H](CCCCN)C(=O)N[C@@H](Cc1ccccc1)C(N)=O [KM9, FKRKF] (Ac-FKRKF-NH2)
Percent killing activity at 25 μM concentration ([4]; SC5314, 25): 70%

CC(=O)N[C@@H](Cc1ccccc1)C(=O)N[C@@H](CCCCN)C(=O)N[C@@H](CCCNC(=N)N)C(=O)N[C@@H](CCCCN)C(=O)N[C@@H](Cc1ccc(O)cc1)C(N)=O [KM5, F-K-R-K-Y] (Ac-FKRKY-NH2)
Percent killing activity at 25 μM concentration ([4]; 25 μM peptide, Candida albicans SC5314): 85%
LD50 (dose of peptide required to achieve 50% killing) ([4]; Candida albicans SC5314, 2 hours at 37° C., calculated using a linear regression equation): 5 µM

CC(=O)N[C@H](Cc1ccccc1)C(=O)N[C@H](CCCCN)C(=O)N[C@H](CCCNC(=N)N)C(=O)N[C@H](CCCCN)C(=O)N[C@H](Cc1ccc(O)cc1)C(N)=O [KM6, dF-dK-dR-dK-dY] (Ac-[dF][dK][dR][dK][dY]-NH2)
antifungal activity relative to comparator peptides (in words) ([4]; Candida albicans SC5314): equivalent antifungal activity

CC(=O)N[C@@H](Cc1ccccc1)C(=O)N[C@@H](CCCCN)C(=O)N[C@@H](CO)C(=O)N[C@@H](CCCCN)C(=O)N[C@@H](Cc1ccc(O)cc1)C(N)=O [KM8, FKSKY] (Ac-FKSKY-NH2)
Percent killing activity at 25 μM concentration ([4]; SC5314, 25): 0%

CC(=O)N[C@@H](Cc1ccccc1)C(=O)N[C@@H](CCCCN)C(=O)N1CCC[C@H]1C(=O)N[C@@H](CCCCN)C(=O)N[C@@H](Cc1ccc(O)cc1)C(N)=O [KM7, FKPKY] (Ac-FKPKY-NH2)
Percent killing activity at 25 μM concentration ([4]; SC5314, 25): 3%
